Converted amounts (≈) assume the structure as drawn.
What was measured:
SF268 cell microtubules = test: Immunofluorescence staining of microtubules in SF268 cells; assay type: cell-based, Human; settings: SF268, 10 µg/mL, 24 h / 12 h, versus DMSO control
Protocol: SF268 cells were seeded onto 96-well plates and allowed to adhere overnight in complete growth medium (RPMI-1640).
After treatment, the cells were rinsed two times with PBS, fixed in 4% paraformaldehyde (15 min), and permeabilized with 0.5% Triton X-100 (Sigma Aldrich, St. Louis, MO, USA) (5 min). Nonspecific binding was blocked with 5% bovine serum albumin (BSA) in phosphate-buffered saline (PBS) for 1 h. […] Nuclei were counterstained with Hoechst 33342 (15 min), washed 2 times with PBS, and left in PBS at 4 °C in the dark.
Fluorescence images were acquired with an Olympus IX70 microscope (Olympus, Tokyo, Japan) using a 60× objective with identical exposure settings for all conditions. Microtubule density and organization were acquired and analyzed using β-tubulin signals in HCImage Hamamatsu (version 4.8) and ImageJ (version 1.54).
SF268 cells were exposed to media containing either DMSO as a control or curcumin derivatives at 10 μg/mL for 24 h, after which the microtubules were visualized with an α tubulin antibody (yellow), and the cell nuclei were stained with Hoechst (blue).
The cells were then stained with a β-tubulin antibody (yellow) and Hoechst dye (blue) to visualize the nucleus.

SF268 glioblastoma cells = test: MTT cytotoxicity in the glioblastoma cell line SF268 (single-concentration screening and IC50); assay type: cell-based, Human; settings: for IC50 / activity at 10 µg/mL: Homo sapiens; for IC50: SF-268, SF268, 48 h; for activity at 10 µg/mL: SF-268, 48 h, read-out: Growth Screening (%RG); for Selectivity Index (SI): Vero versus SF268
Protocol: Cultures were maintained at 37 °C in a 5% CO2 atmosphere and split by trypsin treatment once per week to maintain confluence.
RPMI without cells was used as a color control, and doxorubicin was used as an inhibition control. After treatment, MTT was added to each well, and the absorbance at 570 nm was determined 4 h later using a color plate reader. All bioassays were performed in duplicate, and the IC50 values were determined by the Data Analysis complement Wizard of Excel 2000 (Microsoft, Seattle, WA, USA).

Vero cells = test: Mammalian cytotoxicity, MTT assay in Vero cells; assay type: cell-based; settings: 48 h; for IC50: Chlorocebus sabaeus
Protocol: Grade IV SF268 glioblastoma cells and Vero epithelial cells were obtained from ATCC and cultured in complete medium consisting of Roswell Park Memorial Institute medium (RPMI-1640) supplemented with 0.05% gentamicin (50 mg/mL) and 10% FBS (fetal bovine serum; Gibco, Invitrogen, Carlsbad, CA, USA). Cultures were maintained at 37 °C in a 5% CO2 atmosphere and split by trypsin treatment once per week to maintain confluence.
For the cytotoxicity assays, Vero cells were cultivated in 96-well plates at 37 °C under a 5% CO2 atmosphere using RPMI-1640 medium with 0.05% gentamicin (50 mg/mL) and 10% FBS (fetal bovine serum). Vero cells were allowed to adhere for 24 h before being incubated for 48 h with the samples. During the treatment, dimethyl sulfoxide (DMSO) was used as a negative control, curcumin (1) was used as a control, and samples were assayed at four different concentrations. After incubation, MTT (3-(4,5-di-methyl-thiazol-2-yl)-2,5-diphenyl-tetrazolium bromide) was added to each well, and the absorbance at 570 nm was determined 4 h later using a color plate reader. Cytotoxicity was evaluated colorimetrically by calculating the ability of the remaining living Vero cells to reduce the pale yellow MTT to the black–purple formazan product, as previously described. All bioassays were performed in duplicate, and the inhibitory concentration (IC50) values were determined using the Data Analysis complement Wizard of Excel 2000 (Microsoft, Seattle, WA, USA).

[1] = tested on: mitochondrial membrane potential of SF268 cancer cells; test: Mitochondrial membrane potential measurement with DiOC6; assay type: cell-based, Human; settings: 10 µg/mL, 6 h, versus DMSO control
Protocol: Changes in membrane potential were measured by staining cultured cells with the mitochondrial selective dye 3,3′-dihexyloxacarbocyanine (DiOC6) at 10 nM (Thermo Fisher, Waltham, MA, USA). The samples were incubated at 10 μg/mL for 6 h at 37 °C and then stained for 20 min with DiOC6 in the dark. Following incubation, the cells were washed, and the green fluorescence intensity of the DiOC6-stained cells was analyzed with a fluorometer immediately after staining. Incubation for 1 h with the mitochondrial membrane disruptor CCCP, carbonyl cyanide m-chlorophenylhydrazone (50 μM final concentration), was used as a positive control.
Changes in the mitochondrial membrane potential, a common hallmark of programmed cell death, were analyzed in samples with promising activities toward CNS cell line growth. We examined the effects of these compounds on the mitochondrial membrane potential using the dye DiOC6, a fluorophore that accumulates rapidly and selectively inside mitochondria depending on the membrane potential.
Figure 6 Changes in mitochondrial membrane potential caused by the compounds. Fluorometry was used to measure the mitochondrial effects of compounds that inhibited cell growth in culture. A membrane disruptor (CCCP) was added as a positive control, and untreated cultures (DMSO) were used as a negative control. […]

[2] = tested on: ROS production in SF268 cells; test: Intracellular reactive oxygen species production (DCFDA); assay type: cell-based, Human; settings: derivatives 10 µg/mL for 3 h, H2O2 100 µM positive control
Protocol: Intracellular ROS formation was measured by fluorometry with the reactive dye chloromethyl dichlorodihydrofluorescein diacetate (DCFDA; Molecular Probes). […] Cultures were incubated with curcumin derivatives at 10 μg/mL for 3 h, after which the ROS-specific fluorescent dye DCFDA solution was added to the cells. After 30 min, fluorescence was measured at a wavelength of 485 nm (excitation)/535 nm (emission) using a microplate reader (Molecular Devices, San Jose, CA, USA).
Intracellular ROS production was tested following the treatment of SF268 cells with the curcumin derivatives at 10 μg/mL by fluorometry after staining with DCFDA.
Figure 7 Effects of curcumin derivatives on ROS generation. Cells were treated with curcumin derivatives at 10 μg/mL for 3 h. ROS production was determined using the DCFH-DA assay.

Porcine tubulin = biological target: T1, Porcine tubulin (Sus scrofa, UniProt P02550+P02554); test: In vitro tubulin polymerization assay (cell-free kit); assay type: biochemical; settings: 10 µg/mL, 1 h at 37 °C, versus DMSO control
T1 construct: purchased Cytoskeleton Inc., Denver, CO, USA BK011P; host or cells: porcine neural tissue (tissue-purified; that it is brain is my own knowledge of the kit)
Protocol: A Tubulin Polymerization Assay Kit (Porcine tubulin and Fluorescence-based; Cat. # BK011P) (Cytoskeleton Inc., Denver, CO, USA) was used. Neural tubulin (>99% pure cytoskeleton) and tubulin polymerization buffer were mixed with 10 µg/mL curcumin derivatives or the vehicle DMSO at 37 °C in a preheated 96-well plate. The measurement of […] was immediately initiated using a Bio-Tek Synergy HT plate reader (one reading per minute for 1 h, according to the kit instructions). The rate of tubulin polymerization (milli-OD340 units per min) was then calculated for each sample from the linear portion of the kinetics curve, and group mean rates were analyzed for statistical significance.
We used a fluorescence cell-free-based assay to analyze the ability of curcumin to inhibit tubulin polymerization into microtubules in vitro. […]
Figure 5 (A) Tubulin polymerization of compounds 1, 2, 3, 4, 6, and 11. Tubulin polymerization was monitored by the increase in fluorescence at 360 nm (excitation) and 420 nm (emission) for 1 h at 37 °C. […]
The tubulin polymerization activities were determined by measuring fluorescence and recording the area under the curve (AUC). Increasing fluorescence indicates increasing polymerization activity, whereas decreasing fluorescence indicates greater depolymerization activity.

[3] = SF268, single concentration 10 µg/mL, 48 h, MTT, percentage of relative growth

T1 sequence (P02550 whole entry): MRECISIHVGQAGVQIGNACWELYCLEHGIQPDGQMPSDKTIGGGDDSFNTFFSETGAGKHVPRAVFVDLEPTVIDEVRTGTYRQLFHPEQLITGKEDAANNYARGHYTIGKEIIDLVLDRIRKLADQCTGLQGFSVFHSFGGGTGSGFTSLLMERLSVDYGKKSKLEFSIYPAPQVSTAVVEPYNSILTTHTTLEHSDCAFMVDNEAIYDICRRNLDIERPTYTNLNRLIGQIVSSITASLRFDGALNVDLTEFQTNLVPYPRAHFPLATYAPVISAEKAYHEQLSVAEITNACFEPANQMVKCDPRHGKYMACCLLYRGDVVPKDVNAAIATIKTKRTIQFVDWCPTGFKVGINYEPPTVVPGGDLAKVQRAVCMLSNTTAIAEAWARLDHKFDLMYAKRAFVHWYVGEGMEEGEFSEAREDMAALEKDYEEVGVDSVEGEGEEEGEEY
T1 sequence (P02554 whole entry): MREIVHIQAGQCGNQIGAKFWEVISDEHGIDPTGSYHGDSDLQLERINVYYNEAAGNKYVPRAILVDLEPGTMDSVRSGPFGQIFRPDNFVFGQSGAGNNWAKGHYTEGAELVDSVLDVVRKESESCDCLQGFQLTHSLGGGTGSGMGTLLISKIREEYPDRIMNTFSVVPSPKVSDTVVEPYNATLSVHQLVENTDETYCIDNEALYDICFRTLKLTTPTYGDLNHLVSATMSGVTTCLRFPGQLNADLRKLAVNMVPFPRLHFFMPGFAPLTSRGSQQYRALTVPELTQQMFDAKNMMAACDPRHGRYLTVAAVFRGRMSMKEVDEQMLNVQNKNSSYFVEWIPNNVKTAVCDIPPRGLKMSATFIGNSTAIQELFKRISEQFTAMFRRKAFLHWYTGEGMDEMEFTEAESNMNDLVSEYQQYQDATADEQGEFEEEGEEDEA

With `COc1cc(/C=C/C(O)=C/C(=O)/C=C/c2ccc(OCc3ccccc3)c(OC)c2)ccc1O` [Compound 2] as the compound, how does the “microtubule density and organization” value (SF268 cell microtubules) read?
Its value is “significant reduction in microtubule density”.

And the IC50 (SF268 glioblastoma cells; MTT)?
Its IC50 is 3.97 µg/mL (≈ 8.65 µM).

What about the IC50 (Vero cells) of the same compound?
The IC50 was 11.9 µg/mL (≈ 26 µM).

How did the activity at 10 µg/mL (SF268 glioblastoma cells; [3]) turn out when `COc1cc(/C=C/C(O)=C/C(=O)/C=C/c2ccc(OC(C)=O)c(OC)c2)ccc1O` [Compound 3] was run?
Its activity at 10 µg/mL is no more than 40%.

And the IC50 (SF268 glioblastoma cells; MTT)?
The IC50 was 0.88 µg/mL (≈ 2.14 µM).

What about the IC50 (Vero cells) of the same compound?
Its IC50 is 13.2 µg/mL (≈ 32.2 µM).

And the “mitochondrial membrane potential (DiOC6 fluorescence intensity)” value [1]?
The value was “lowest fluorescence intensity”.

`COC(=O)CCC(=O)Oc1ccc(/C=C/C(=O)/C=C(O)/C=C/c2ccc(O)c(OC)c2)cc1OC` [Compound 6] was tested. Which “microtubule density and organization” value (SF268 cell microtubules) did it give?
Its value is “significant reduction in microtubule density”.

What about the activity at 10 µg/mL (SF268 glioblastoma cells; [3]) of the same compound?
The activity at 10 µg/mL was no more than 40%.

And the IC50 (SF268 glioblastoma cells; MTT)?
The IC50 was 0.833 µg/mL (≈ 1.73 µM).

And the “Selectivity Index (SI)” value (SF268 glioblastoma cells)?
The value was 15.45.

And the IC50 (Vero cells)?
Its IC50 is 12.9 µg/mL (≈ 26.7 µM).

`C=CCOC(=O)CCC(=O)Oc1ccc(/C=C/C(=O)/C=C(O)/C=C/c2ccc(O)c(OC)c2)cc1OC` [Compound 11, Allyl (4-(1E,3Z,6E)-3-hydroxy-7-(4-hydroxy-3-methoxyphenyl)-5-oxohepta-1,3,6-trien-1-yl)-2-methoxyphenyl) succinate] was tested. Which “microtubule density and organization” value (SF268 cell microtubules) did it give?
The value was “significant reduction in microtubule density”.

And the activity at 10 µg/mL (SF268 glioblastoma cells; [3])?
Its activity at 10 µg/mL is no more than 40%.

What about the IC50 (SF268 glioblastoma cells; MTT) of the same compound?
The IC50 was 0.59 µg/mL.

And the “Selectivity Index (SI)” value (SF268 glioblastoma cells)?
The value was 20.17.

And the IC50 (Vero cells)?
Its IC50 is 11.9 µg/mL.

What about the “mitochondrial membrane potential (DiOC6 fluorescence intensity)” value [1] of the same compound?
The value was “lowest fluorescence intensity”.

Which ROS production [2] does the source give for `OO` [Compound H2O2, Hydrogen peroxide] here?
Its ROS production is “distinct ROS production”.

How did the “tubulin polymerization (fluorescence, AUC)” value (Porcine tubulin) turn out when `CC(=O)O[C@H]1C(=O)[C@@]2(C)[C@H]([C@H](OC(=O)c3ccccc3)[C@]3(O)C[C@H](OC(=O)[C@H](O)[C@@H](NC(=O)c4ccccc4)c4ccccc4)C(C)=C1C3(C)C)[C@]1(OC(C)=O)CO[C@@H]1C[C@@H]2O` [Paclitaxel] was run?
The value was “caused an increase in the AUC”.

With `O=C1O[C@H]([C@@H](O)CO)C(O)=C1O` [ascorbic acid] as the compound, how does the ROS production [2] read?
The ROS production was “expected decrease”.

With `[Ca+2].[Cl-].[Cl-]` [calcium chloride] as the compound, how does the “tubulin polymerization (fluorescence, AUC)” value (Porcine tubulin) read?
Its value is “significant decrease in the AUC”.

Which results are given for “Cyclopentyl (4-((1E,3Z,6E)-3-hydroxy-7-(4-hydroxy-3-methoxyphenyl)-5-oxohepta-1,3,6-trien-1-yl)-2-methoxyphenyl) succinate [Compound 5]”?
Growth Screening (%RG) (SF268 glioblastoma cells; [3]): 50.81%; IC50 VERO (Vero cells): 12.6 µg/mL

Source: paper PMC12389136, “Insights into the Structural Patterns in Human Glioblastoma Cell Line SF268 Activity and ADMET Prediction of Curcumin Derivatives” (Pharmaceutics, 2025)
